Patent US20240261248A1, “METHODS FOR TREATING AUTISM SPECTRUM DISORDERS (ASD)” (SK BIOPHARMACEUTICALS CO., LTD., priority 2021, published 2024)

Assays:
[1] = Body weight change in MeCP2 KO mice (HET); assay type: in vivo, mouse; settings: 100 mg/kg po daily from about 5 weeks to 16 weeks old, FIG. 5
Experimental: Vehicle WT group: vehicle (0.9% saline, 10 ml/kg)
Vehicle HET group: vehicle (0.9% saline, 10 ml/kg)
Test compound HET group: 100 mg/kg, po in 0.9% saline
About 5 week old WT and HET mice were treated with daily oral injections of the vehicle or Test compound. Treatment conducted until the mice became 16 weeks old.

[2] = system: MeCP2 KO mouse primary cortical neurons; assay: Morphological recovery of MeCP2 KO primary neuron: synaptogenesis and soma size (Synapsin-1, MAP2, Hoechst, DIV14); assay type: cell-based; settings: Test compound 1000 nM from DIV1, analysed at DIV14
Experimental: (§1) MeCP2 KO mouse primary cortical neurons were cultured at PO and morphological change was analyzed via immunocytochemistry.
BDNF (50 ng/ml) or Test compound (1000 nM) was treated from DIV1 to indicated days. At DIV14, synaptogenesis and soma size were analyzed with Synapsin-1, MAP2 immunostaining and nuclear staining with Hoechst.

MeCP2 KO mice (HET) [3] = assay: Hindlimb clasping test in MeCP2 KO mice (HET); assay type: in vivo, mouse; settings: 100 mg/kg, compared to vehicle-treated HET mice, FIG. 7
MeCP2 KO mice (HET) [4] = assay: Accelerating rotarod test in MeCP2 KO mice (HET); assay type: in vivo, mouse; settings: accelerating speed 0-40 rpm over 5 min, compared to vehicle-treated HET mice, FIG. 6
Description: The rotarod test is widely used to evaluate the motor coordination of rodents, and is especially sensitive in detecting cerebellar dysfunction. The motor performance on the rotarod can be influenced by several factors, such as motor coordination, learning and cardiopulmonary endurance. Since several studies have shown that basal ganglia are essential in motor skill learning of serial motor sequence. The test measures parameters such as riding time (seconds) or endurance (RPM).
Mice were placed on the rotarod apparatus (Ugo basile, Italy) consisting of a rod that rotates at a constant or variable and accelerating speed of 4 rpm. Once a mouse loses its balance and falls onto an underlying platform, the timer automatically stops. Mice were exposed to the apparatus for 5 min training at a constant speed (4 rpm) and placed back on the rod after each fell. After a rest period of at least 1 hr, animals were placed back on the rotarod apparatus for testing. Once all animals in a test session were loaded on the rod, the rotarod apparatus was placed on accelerating speed (0-40 rpm) over 5 min and then the first falling time was recorded. The test was repeated three consecutive times per animal. For each test session, the RPM score at time of fall off the rod were recorded.

[5] = system: MeCP2 knockout mice (Null); assay: Survival rate test in MeCP2 knockout mice (Null); assay type: in vivo, mouse
Experimental: Vehicle Null group: vehicle (0.9% saline, 10 ml/kg)
Test compound Null group: 100 mg/kg, po in 0.9% saline
About 5 week old Null mice were treated with daily oral injections of the vehicle or Test compound. MeCP2 knockout mice (Null) survival rate test was conducted until all animals were dead.
ILS ([…])%: 100×(median survival days of test group-median survival days of vehicle group)/median survival days of vehicle group (FIG. 4).

[6] = system: MeCP2 KO mouse primary cortical neurons; assay: Morphological recovery of MeCP2 KO primary neuron: neurite outgrowth (MAP2 immunostaining, DIV5); assay type: cell-based; settings: Test compound 80 and 2000 nM from DIV1, analysed at DIV5; BDNF 50 ng/ml as comparator; FIG. 1
Experimental: as §1
BDNF (50 ng/ml) or Test compound (80 and 2000 nM) was treated from DIV1 to indicated days. At DIV5, the neurite outgrowth was analyzed with MAP2 immunostaining for analysis of neurite formation.

With NC(=O)OC[C@H](N)Cc1ccccc1 [Test compound, (R)-(beta-amino-benzenepropyl) carbamate] as the molecule, how does the body weight change [1] read?
The body weight change was “did not affect the body weight change”.

What about the synaptogenesis ([2]; FIG. 2) of the same molecule?
The synaptogenesis was “significantly enhanced”.

And the soma size ([2]; FIG. 3)?
Its soma size is “significantly enhanced”.

And the clasping (MeCP2 KO mice (HET) [3])?
Its clasping is “clasped less than vehicle-treated HET mice”.

And the “speed at fall (RPM score)” value (MeCP2 KO mice (HET) [4])?
The value was “fell at higher speeds”.

And the “time to fall off from the rod” value (MeCP2 KO mice (HET) [4])?
Its value is “took more time to fall off from the rod”.

What about the “increase of ILS %” value ([5]; 100 mg/kg po daily from about 5 weeks old, compared to vehicle-treated Null mice, FIG. 4) of the same molecule?
The value was 42.7%.

What about the life span ([5]; 100 mg/kg po daily, vs vehicle, P<0.0046, Log lank test) of the same molecule?
The life span was “significant enhancement of life span”.

And the “neurite length (neurite outgrowth)” value [6]?
The value was “significantly enhanced the neurite length to a level similar to that of BDNF”.
